Earlier results on six compounds are cited in patent US9328120B2, “6-cycloalkyl-pyrazolopyrimidinones for the treatment of CNS disorders” (Boehringer Ingelheim International GmbH, priority 2010, dated 2016).

Data set [1] addresses human PDE9A (Homo sapiens (Human), UniProt O76083). The note with it: for inhibition on the isolated enzyme: concentrations of up to 100 micromolar (μM).
Data set [2] addresses Murine PDE9A (Mus musculus (Mouse), UniProt O70628). The note with it: concentrations below 200 micromolar.

Chain of human PDE9A (O76083 whole entry): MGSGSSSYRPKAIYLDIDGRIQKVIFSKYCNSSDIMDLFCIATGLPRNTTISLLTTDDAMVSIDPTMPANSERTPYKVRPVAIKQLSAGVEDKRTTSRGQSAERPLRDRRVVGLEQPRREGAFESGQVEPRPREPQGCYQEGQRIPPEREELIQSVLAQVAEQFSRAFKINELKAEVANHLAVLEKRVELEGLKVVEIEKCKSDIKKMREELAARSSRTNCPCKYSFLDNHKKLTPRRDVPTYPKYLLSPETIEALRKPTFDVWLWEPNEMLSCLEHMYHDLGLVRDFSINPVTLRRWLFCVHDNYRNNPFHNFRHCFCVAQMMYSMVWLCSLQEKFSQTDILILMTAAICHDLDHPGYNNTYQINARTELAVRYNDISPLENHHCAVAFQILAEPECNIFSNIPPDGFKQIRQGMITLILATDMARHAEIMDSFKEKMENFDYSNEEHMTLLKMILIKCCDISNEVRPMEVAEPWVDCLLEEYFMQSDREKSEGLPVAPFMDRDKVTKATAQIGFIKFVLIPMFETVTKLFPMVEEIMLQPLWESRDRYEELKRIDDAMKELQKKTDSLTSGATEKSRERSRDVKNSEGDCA
Chain of Murine PDE9A (O70628 whole entry): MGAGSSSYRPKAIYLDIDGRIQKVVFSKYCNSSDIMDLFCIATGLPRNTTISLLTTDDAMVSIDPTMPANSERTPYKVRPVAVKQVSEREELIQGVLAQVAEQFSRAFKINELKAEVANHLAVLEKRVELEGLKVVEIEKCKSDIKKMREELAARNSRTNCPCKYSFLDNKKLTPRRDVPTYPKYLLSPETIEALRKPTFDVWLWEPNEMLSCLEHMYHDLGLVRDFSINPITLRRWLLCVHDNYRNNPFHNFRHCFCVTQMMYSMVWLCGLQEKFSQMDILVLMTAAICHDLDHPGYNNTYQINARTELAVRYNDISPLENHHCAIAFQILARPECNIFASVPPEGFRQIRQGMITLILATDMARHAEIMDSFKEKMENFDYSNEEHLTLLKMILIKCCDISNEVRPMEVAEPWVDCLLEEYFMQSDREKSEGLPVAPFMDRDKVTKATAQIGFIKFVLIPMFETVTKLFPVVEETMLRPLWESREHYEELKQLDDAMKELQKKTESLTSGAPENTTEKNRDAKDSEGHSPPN

For `CC(C)Cn1c(=O)n(C)c(=O)c2[nH]cnc21` [IBMX], the “inhibition on the isolated enzyme” value in data set [1] was “no inhibition”. The “inhibition of murine PDE9A” value in data set [2] was “not inhibited”.

Regarding `CC(=O)Nc1ccc(-c2c[nH]c(=O)cn2)cc1` [SKF94120], in data set [1], the “inhibition on the isolated enzyme” value was “no inhibition”.

As to `OCCN(CCO)c1nc(N2CCCCC2)c2nc(N(CCO)CCO)nc(N3CCCCC3)c2n1` [dipyridamole], in data set [1], the “inhibition on the isolated enzyme” value is recorded as “no inhibition”.

For the compound `COc1ccc(C2CNC(=O)C2)cc1OC1CCCC1` (stereo not shown) [rolipram], the “inhibition on the isolated enzyme” value in data set [1] was “no inhibition”.

Take `CCOC(=O)C1=C[C@]2(CC)CCCN3CCc4c(n1c1ccccc41)[C@@H]32` [vinpocetine]: the “inhibition on the isolated enzyme” value in data set [1] is recorded as “no inhibition”.

As usually defined, the IC50 is the midpoint of a concentration-inhibition curve. Consider `CCCOc1ccccc1-c1nc2nn[nH]c2c(=O)[nH]1` [zaprinast], for which the IC50 in data set [1] (isolated human PDE9A enzyme) is listed as 35 micromolar (μM).
